Data from ChEMBL document CHEMBL3865846, “Synthesis and biological evaluation of ricinoleic acid-based lipoamino acid derivatives” (Bioorg Med Chem Lett, 2016).
Values after ≈ are worked out from the molar mass of the structure shown.

What was measured:
Format in all cases: functional
Candida albicans [1] = experiment: Antimicrobial activity against Candida albicans MTCC3958 measured after 24 hrs by well-diffusion method; settings: MTCC3958, 24 h
Candida albicans [2] = experiment: Antimicrobial activity against Candida albicans MTCC854 measured after 24 hrs by well-diffusion method; settings: MTCC854, 24 h
Candida albicans [3] = experiment: Antimicrobial activity against Candida albicans MTCC4748 measured after 24 hrs by well-diffusion method; settings: MTCC4748, 24 h
Candida albicans [4] = experiment: Antimicrobial activity against Candida albicans MTCC227 measured after 24 hrs by well-diffusion method; settings: MTCC227, 24 h
Candida albicans [5] = experiment: Antimicrobial activity against Candida albicans MTCC7315 measured after 24 hrs by well-diffusion method; settings: MTCC7315, 24 h
Staphylococcus aureus [6] = experiment: Antimicrobial activity against Staphylococcus aureus MLS16 MTCC2940 measured after 24 hrs by well-diffusion method; settings: MLS16 MTCC2940, 24 h
Bacillus subtilis = experiment: Antimicrobial activity against Bacillus subtilis MTCC121 measured after 24 hrs by well-diffusion method; settings: MTCC121, 24 h
Candida albicans [7] = experiment: Antimicrobial activity against Candida albicans MTCC183 measured after 24 hrs by well-diffusion method; settings: MTCC183, 24 h
Micrococcus luteus = experiment: Antimicrobial activity against Micrococcus luteus MTCC2470 measured after 24 hrs by well-diffusion method; settings: MTCC2470, 24 h
Pseudomonas aeruginosa = experiment: Antimicrobial activity against Pseudomonas aeruginosa MTCCM2453 measured after 24 hrs by well-diffusion method; settings: MTCCM2453, 24 h
Candida albicans [8] = experiment: Antimicrobial activity against Candida albicans MTCC1637 measured after 24 hrs by well-diffusion method; settings: MTCC1637, 24 h
Candida albicans [9] = experiment: Antimicrobial activity against Candida albicans MTCC3018 measured after 24 hrs by well-diffusion method; settings: MTCC3018, 24 h
Candida albicans [10] = experiment: Antimicrobial activity against Candida albicans MTCC3017 measured after 24 hrs by well-diffusion method; settings: MTCC3017, 24 h
Escherichia coli = experiment: Antimicrobial activity against Escherichia coli MTCC739 measured after 24 hrs by well-diffusion method; settings: MTCC739, 24 h
Raoultella planticola = experiment: Antimicrobial activity against Klebsiella planticola MTCC530 measured after 24 hrs by well-diffusion method; settings: MTCC530, 24 h
Staphylococcus aureus [11] = experiment: Antimicrobial activity against Staphylococcus aureus MTCC96 measured after 24 hrs by well-diffusion method; settings: MTCC96, 24 h
Candida parapsilosis = experiment: Antimicrobial activity against Candida parapsilosis MTCC1744 measured after 24 hrs by well-diffusion method; settings: Lodderomyces parapsilosis, MTCC1744, 24 h
Pichia sporocuriosa = experiment: Antimicrobial activity against Issatchenkia hanoiensis MTCC4755 measured after 24 hrs by well-diffusion method; settings: MTCC4755, 24 h
Nakaseomyces glabratus = experiment: Antimicrobial activity against Candida glabrata MTCC3019 measured after 24 hrs by well-diffusion method; settings: MTCC3019, 24 h
Pichia kudriavzevii = experiment: Antimicrobial activity against Candida krusei MTCC3020 measured after 24 hrs by well-diffusion method; settings: MTCC3020, 24 h

MIC (Candida albicans [1]) [µg/mL] | MIC (Candida albicans [2]) [µg/mL] | MIC (Candida albicans [3]) [µg/mL] | MIC (Candida albicans [4]) [µg/mL] | MIC (Candida albicans [5]) [µg/mL] | MIC (Staphylococcus aureus [6]) [µg/mL] | MIC (Bacillus subtilis) [µg/mL] | MIC (Candida albicans [7]) [µg/mL] | MIC (Micrococcus luteus) [µg/mL] | MIC (Pseudomonas aeruginosa) [µg/mL] | MIC (Candida albicans [8]) [µg/mL] | MIC (Candida albicans [9]) [µg/mL] | MIC (Candida albicans [10]) [µg/mL] | MIC (Escherichia coli) [µg/mL] | MIC (Staphylococcus aureus [11]) [µg/mL] | MIC (Candida parapsilosis) [µg/mL] | MIC (Pichia sporocuriosa) [µg/mL] | MIC (Nakaseomyces glabratus) [µg/mL] | MIC (Pichia kudriavzevii) [µg/mL] | SMILES | MIC (Raoultella planticola) [µg/mL]
> 125 | > 125 | > 125 | > 125 | > 125 | > 125 | > 125 | > 125 | > 125 | > 125 | > 125 | > 125 | > 125 | > 125 | > 125 | – | – | – | – | CCCCCCC(C/C=C\CCCCCCCC(=O)OC)NC(=O)[C@@H](N)Cc1c[nH]c2ccccc12 (some centres undefined) | > 125
7.8 (≈ 18.7 µM) | 7.8 (≈ 18.7 µM) | 7.8 (≈ 18.7 µM) | 7.8 (≈ 18.7 µM) | 7.8 (≈ 18.7 µM) | – | – | 7.8 (≈ 18.7 µM) | – | – | 7.8 (≈ 18.7 µM) | 7.8 (≈ 18.7 µM) | 7.8 (≈ 18.7 µM) | – | – | 7.8 (≈ 18.7 µM) | 7.8 (≈ 18.7 µM) | 7.8 (≈ 18.7 µM) | 7.8 (≈ 18.7 µM) | Clc1ccc(COC(Cn2ccnc2)c2ccc(Cl)cc2Cl)c(Cl)c1 (centres undefined) [MICONAZOLE] | –
